Measurements: ChEMBL document CHEMBL2074298, “Inhibition of vinblastine efflux mediated by P-glycoprotein by grapefruit juice components in caco-2 cells” (Biol Pharm Bull, 1998)

Tests used:
[1] = biological target: T1, ATP-dependent translocase ABCB1 (Homo sapiens, UniProt P08183); assay: TP_TRANSPORTER: increase in Vinblastine transepithelial transpot (apical to basal)(Vinblastine: 0.01 uM, Naringenin: 855 uM) in Caco-2 cells; assay type: functional, cell-based; conditions: caco-2, 855 µM
[2] = biological target: T1, ATP-dependent translocase ABCB1; assay: TP_TRANSPORTER: increase in Vinblastine transepithelial transpot (apical to basal) (Vinblastine: 0.01 uM, GFJ: 50 %) in Caco-2 cells; assay type: functional, cell-based

T1 sequence (P08183 whole entry): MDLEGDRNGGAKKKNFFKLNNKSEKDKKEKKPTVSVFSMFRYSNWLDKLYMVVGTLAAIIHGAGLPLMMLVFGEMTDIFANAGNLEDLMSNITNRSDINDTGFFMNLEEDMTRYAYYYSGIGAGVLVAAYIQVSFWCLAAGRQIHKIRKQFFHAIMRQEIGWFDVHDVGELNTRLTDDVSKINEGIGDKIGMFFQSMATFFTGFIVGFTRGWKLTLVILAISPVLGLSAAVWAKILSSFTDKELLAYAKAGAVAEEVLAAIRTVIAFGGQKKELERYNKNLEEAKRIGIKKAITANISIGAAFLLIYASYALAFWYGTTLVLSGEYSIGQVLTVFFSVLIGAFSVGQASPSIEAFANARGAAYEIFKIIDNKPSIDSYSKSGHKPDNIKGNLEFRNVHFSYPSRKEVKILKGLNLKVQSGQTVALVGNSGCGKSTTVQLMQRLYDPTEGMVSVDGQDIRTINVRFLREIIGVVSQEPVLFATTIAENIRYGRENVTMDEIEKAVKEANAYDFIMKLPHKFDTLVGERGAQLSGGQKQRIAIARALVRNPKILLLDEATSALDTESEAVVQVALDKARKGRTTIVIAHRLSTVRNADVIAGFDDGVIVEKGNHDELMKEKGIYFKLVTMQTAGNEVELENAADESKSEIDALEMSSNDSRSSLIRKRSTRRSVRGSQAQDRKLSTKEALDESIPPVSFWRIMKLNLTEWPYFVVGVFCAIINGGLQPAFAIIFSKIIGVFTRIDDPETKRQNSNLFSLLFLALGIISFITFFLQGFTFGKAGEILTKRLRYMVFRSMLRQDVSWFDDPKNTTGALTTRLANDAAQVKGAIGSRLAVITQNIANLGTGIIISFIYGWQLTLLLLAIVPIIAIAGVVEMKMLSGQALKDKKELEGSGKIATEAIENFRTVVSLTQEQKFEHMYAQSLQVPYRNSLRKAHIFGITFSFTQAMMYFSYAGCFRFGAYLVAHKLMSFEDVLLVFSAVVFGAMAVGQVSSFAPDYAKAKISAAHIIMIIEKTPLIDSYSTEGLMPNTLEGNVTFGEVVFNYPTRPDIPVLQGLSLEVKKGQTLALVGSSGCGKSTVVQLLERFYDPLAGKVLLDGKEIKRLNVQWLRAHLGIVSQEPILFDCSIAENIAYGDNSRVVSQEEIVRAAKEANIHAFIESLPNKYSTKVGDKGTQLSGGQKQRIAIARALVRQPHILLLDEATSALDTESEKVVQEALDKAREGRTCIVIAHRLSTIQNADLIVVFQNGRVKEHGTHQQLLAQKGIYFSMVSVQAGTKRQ

| Compound | Activity [1] [%] | Activity [2] [%] |
| --- | --- | --- |
| O=C1C[C@@H](c2ccc(O)cc2)Oc2cc(O)cc(O)c21 [NARINGENIN] | 240 |  |
| GRAPEFRUIT JUICE |  | 240 |
